Here are results for one molecule from ChEMBL document CHEMBL5550140, “Emerging ferroptosis inhibitors as a novel therapeutic strategy for the treatment of neonatal hypoxic-ischemic encephalopathy” (2024).

The subject of this test is Mus musculus. Description: Neuroprotective activity against hypoxia-ischemia brain injured mouse model assessed as reduction in infarct volume at 20 mg/kg, ip measured after 72 hrs by immuno-histochemistry based staining analysis relative to control. Type of test: functional. Also noted: scale not given: the % may be the effect or the level left.

`Oc1cccnc1NC(c1ccc(Cl)cc1)c1ccc2cccnc2c1O` (stereo unspecified): the Activity is given as 26.3%.
